We go through 37 molecules from US7241791B2, “Substituted 4-(indazol-3-yl)phenols” (Wyeth, priority 2002, dated 2007).

In the assay the target is T1, human ERα (Homo sapiens, UniProt P03372).
T1 sequence (P03372 1-595): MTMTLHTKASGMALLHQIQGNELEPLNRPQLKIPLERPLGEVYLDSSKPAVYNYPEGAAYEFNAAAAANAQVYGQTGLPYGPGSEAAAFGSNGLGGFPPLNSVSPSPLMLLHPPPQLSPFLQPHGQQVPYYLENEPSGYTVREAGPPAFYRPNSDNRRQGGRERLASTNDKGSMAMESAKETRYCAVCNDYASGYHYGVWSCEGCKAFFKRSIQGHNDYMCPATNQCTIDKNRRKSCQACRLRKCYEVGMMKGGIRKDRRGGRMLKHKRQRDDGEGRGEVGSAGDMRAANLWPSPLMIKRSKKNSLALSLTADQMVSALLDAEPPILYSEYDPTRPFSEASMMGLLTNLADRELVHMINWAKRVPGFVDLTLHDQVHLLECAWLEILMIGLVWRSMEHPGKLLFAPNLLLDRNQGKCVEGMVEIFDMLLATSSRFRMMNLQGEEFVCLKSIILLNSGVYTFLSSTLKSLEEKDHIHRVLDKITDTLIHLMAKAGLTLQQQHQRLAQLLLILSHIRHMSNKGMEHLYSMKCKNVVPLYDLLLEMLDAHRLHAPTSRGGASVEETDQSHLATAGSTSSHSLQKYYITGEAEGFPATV
The assay is described as follows: NF-κB luciferase reporter (ER/NF-KB-luc) in Ad5-wt-hERα infected HAECT-1 cells. As to conditions: for IC50: ER/NF-KB-luc IC50, Ad5-wt-ER infected HAECT-1 cells, IL-1β. For orientation: Reporter assays use an easily measured gene product as a stand-in for the process of interest.

Setting [1] is: HAECT1, read-out: ER/NF-KB-luc % E2, efficacy relative to the maximal inhibition observed with E2.
The mark [2] stands for this setting: HAECT1, read-out: ER/NF-KB-luc % E2.

As usually defined, the IC50 is the midpoint of a concentration-inhibition curve. Higher therefore signals weaker potency.

SMILES strings stand for the structures. Read-outs that look alike come from different tables or passages of the source.

Take `CCCn1nc(-c2ccc(O)cc2O)c2ccc(O)cc21` [Example 1, 4-(6-hydroxy-1-propyl-1H-indazol-3-yl)benzene-1,3-diol]: under setting [1], the Emax is 74%. Regarding `Oc1ccc(-c2nn(-c3cccc(Cl)c3)c3cc(O)ccc23)c(O)c1` [Example 6, 4-[1-(3-chlorophenyl)-6-hydroxy-1H-indazol-3-yl]benzene-1,3-diol], the Emax under setting [1] was determined as 85%.

`Oc1ccc(-c2nn(-c3cccc(F)c3)c3cc(O)ccc23)c(O)c1` [Example 21, 4-[1-(3-fluorophenyl)-6-hydroxy-1H-indazol-3-yl]benzene-1,3-diol]: the Emax under setting [2] worked out at 73%. With `Oc1ccc(-c2nn(-c3ccccc3F)c3cc(O)ccc23)c(O)c1` [Example 22, 4-[1-(2-fluorophenyl)-6-hydroxy-1H-indazol-3-yl]benzene-1,3-diol], the IC50 stood at 50 nM. Also, the Emax under setting [1] was determined as 73%.

On to `Oc1ccc(-c2nn(-c3ccc(F)c(Cl)c3)c3cc(O)ccc23)c(O)c1` [Example 24, 4-[1-(3-chloro-4-fluorophenyl)-6-hydroxy-1H-indazol-3-yl]benzene-1,3-diol], for which the IC50 was 63 nM. Under setting [1], the Emax stood at 83%. The molecule `O=[N+]([O-])c1cccc(-n2nc(-c3ccc(O)cc3O)c3ccc(O)cc32)c1` [Example 25, 4-[6-hydroxy-1-(3-nitrophenyl)-1H-indazol-3-yl]benzene-1,3-diol] gave an IC50 of 274 nM. Besides, under setting [1], the Emax amounted to 112%. Turning to `Oc1ccc(-c2nn(-c3cccc(C(F)(F)F)c3)c3cc(O)ccc23)c(O)c1` [Example 26, 4-{6-hydroxy-1-[3-(trifluoromethyl)phenyl]-1H-indazol-3-yl}benzene-1,3-diol], the 50% inhibitory concentration (IC50) came to 356 nM. Besides, the Emax under setting [1] is 101%.

`CC(C)c1ccc(-n2nc(-c3ccc(O)cc3O)c3ccc(O)cc32)cc1` [Example 27, 4-[6-hydroxy-1-(4-isopropylphenyl)-1H-indazol-3-yl]benzene-1,3-diol] yielded an IC50 of 1030 nM. For the same molecule, the Emax under setting [1] is 96%.

As to `CS(=O)(=O)c1ccc(-n2nc(-c3ccc(O)cc3O)c3ccc(O)cc32)cc1` [Example 28, 4-{6-hydroxy-1-[4-(methylsulfonyl)phenyl]-1H-indazol-3-yl}benzene-1,3-diol], half-maximal inhibition (IC50) was put at 551 nM. The Emax under setting [1] worked out at 86%. Take `Oc1ccc(-c2nn(-c3ccc(Br)cc3)c3c(C(F)(F)F)cccc23)cc1` [Example 31, 4-[1-(4-bromophenyl)-7-(trifluoromethyl)-1H-indazol-3-yl]phenol]: the half-maximal inhibitory concentration (IC50) came to 636 nM. In addition, under setting [1], the Emax was 120%. With `Oc1ccc(-c2nn(C3CCCCC3)c3c(C(F)(F)F)cccc23)cc1` [Example 32, 4-[1-cyclohexyl-7-(trifluoromethyl)-1H-indazol-3-yl]phenol], the IC50 is 65 nM. Also, the Emax under setting [1] was found to be 91%.

For `CCCn1nc(-c2ccc(O)cc2)c2cccc(C)c21` [Example 37, 4-(7-methyl-1-propyl-1H-indazol-3-yl)phenol], the Emax under setting [2] was found to be 95%. On to `CCCCCn1nc2c(Cl)cccc2c1-c1ccc(O)cc1` [Example 42, 4-[7-chloro-2-pentyl-2H-indazol-3-yl]phenol], for which half-maximal inhibition (IC50) required 190 nM. In addition, under setting [1], the Emax came to 102%.

Turning to `CCCn1nc(-c2ccc(O)cc2)c2cccc(Cl)c21` [Example 43, 4-(7-chloro-1-propyl-1H-indazol-3-yl)phenol], the Emax under setting [1] was determined as 79%. As to `CCCn1nc2c(F)cccc2c1-c1ccc(O)cc1` [Example 54, 4-(7-fluoro-2-propyl-2H-indazol-3-yl)phenol], the midpoint of inhibition, the IC50, lay at 393 nM. For the same molecule, the Emax under setting [1] amounted to 77%.

For the molecule `Cc1cc(-c2nn(C3CCCC3)c3c(F)cccc23)ccc1O` [Example 63, 4-(1-cyclopentyl-7-fluoro-1H-indazol-3-yl)-2-methylphenol], the IC50 was found to be 1880 nM. Under setting [1], the Emax amounted to 158%. `Oc1ccc(-c2nn(CC3CCCCC3)c3c(C(F)(F)F)cccc23)c(O)c1` [Example 67, 4-[1-(cyclohexylmethyl)-7-(trifluoromethyl)-1H-indazol-3-yl]benzene-1,3-diol] displayed an IC50 of 48 nM. Also, the Emax under setting [1] was 65%. As for `CC(C)Cn1nc(-c2ccc(O)cc2O)c2cccc(C(F)(F)F)c21` [Example 68, 4-[1-isobutyl-7-(trifluoromethyl)-1H-indazol-3-yl]benzene-1,3-diol], inhibition was half-maximal at 56 nM (IC50). Besides, the Emax under setting [1] worked out at 74%. Consider `Oc1ccc(-c2nn(C3CCC3)c3c(C(F)(F)F)cccc23)c(O)c1` [Example 70, 4-[1-cyclobutyl-7-(trifluoromethyl)-1H-indazol-3-yl]benzene-1,3-diol], for which inhibition was half-maximal at 14 nM (IC50). For the same molecule, the Emax under setting [1] amounted to 76%.

With `CC(C)n1nc(-c2ccc(O)cc2O)c2cccc(Cl)c21` [Example 80, 4-(7-chloro-1-isopropyl-1H-indazol-3-yl)benzene-1,3-diol], half-maximal inhibition (IC50) was put at 18 nM. Under setting [1], the Emax was determined as 48%. With `C=CCn1nc(-c2ccc(O)cc2C)c2cccc(Cl)c21` [Example 82, 4-(1-allyl-7-chloro-1H-indazol-3-yl)-3-methylphenol], the IC50 amounted to 191 nM. Besides, the Emax under setting [1] was determined as 68%. `Cc1cc(O)ccc1-c1nn(C(C)C)c2c(C(F)(F)F)cccc12` [Example 83, 4-[1-isopropyl-7-(trifluoromethyl)-1H-indazole-3-yl]-3-methylphenol]: under setting [1], the Emax amounted to 82%. In the case of `Cc1cc(O)ccc1-c1nn(C2CCCC2)c2c(Cl)cccc12` [Example 84, 4-(7-chloro-1-cyclopentyl-1H-indazole-3-yl)-3-methylphenol], it took 36 nM to reach half-maximal inhibition (IC50). In addition, under setting [1], the Emax was 75%. In the case of `C=CCn1nc(-c2ccc(O)cc2O)c2cccc(Cl)c21` [Example 85, 4-(1-allyl-7-chloro-1H-indazole-3-yl)benzene-1,3-diol], it took 235 nM to reach half-maximal inhibition (IC50). In addition, the Emax under setting [1] is 46%. `Oc1ccc(-c2nn(C3CCCC3)c3c(F)cccc23)c(O)c1` [Example 88, 4-(1-cyclopentyl-7-fluoro-1H-indazole-3-yl)benzene-1,3-diol]: the IC50 was determined as 419 nM. For the same molecule, under setting [1], the Emax worked out at 74%. Regarding `CC(C)n1nc2c(F)cccc2c1-c1ccc(O)cc1O` [Example 89, 4-(7-fluoro-2-isopropyl-2H-indazole-3-yl)benzene-1,3-diol], the IC50 amounted to 435 nM. Moreover, under setting [1], the Emax was 97%. Consider `CCCn1nc2c(F)cccc2c1-c1ccc(O)cc1C` [Example 92, 4-(7-fluoro-2-propyl-2H-indazole-3-yl)-3-methylphenol], for which half-maximal inhibition (IC50) was put at 228 nM. Further, the Emax under setting [1] turned out to be 87%.

In turn, `CCCn1nc(-c2ccc(O)cc2C)c2cccc(F)c21` [Example 93, 4-(7-fluoro-1-propyl-1H-indazole-3-yl)-3-methylphenol] had an IC50 of 128 nM. The Emax under setting [1] turned out to be 60%.

`CC(C)Cn1nc(-c2ccc(O)cc2O)c2cccc(F)c21` [Example 94, 4-(7-fluoro-1-isobutyl-1H-indazole-3-yl)benzene-1,3-diol] had an IC50 of 332 nM. Also, the Emax under setting [1] is 86%. As for `Cc1cc(O)ccc1-c1nn(CC(C)C)c2c(F)cccc12` [Example 96, 4-(7-fluoro-1-isobutyl-1H-indazole-3-yl)-3-methylphenol], the IC50 was found to be 88 nM. Moreover, the Emax under setting [1] was determined as 78%.

Take `Oc1ccc(-c2nn(-c3ccsc3)c3c(Cl)cccc23)cc1` [Example 101, 4-(7-chloro-1-thien-3-yl-1H-indazole-3-yl)phenol]: the IC50 was found to be 505 nM. For the same molecule, the Emax under setting [1] was 61%. Regarding `CCCn1nc(-c2ccc(O)cc2)c2cccc(-c3ccc(O)cc3)c21` [Example 103, 4-[3-(4-hydroxyphenyl)-1-propyl-1H-indazole-7-yl]phenol], half-maximal inhibition (IC50) required 138 nM. Also, the Emax under setting [1] is 79%.

The molecule `CCCn1nc(-c2ccc(O)cc2)c2cccc(-c3ccc(F)cc3)c21` [Example 104, 4-[7-(4-Fluorophenyl)-1-propyl-1H-indazole-3-yl]phenol] came in with an IC50 of 250 nM. The Emax under setting [1] was determined as 81%. `CCCn1nc(-c2ccc(O)cc2)c2cccc(N3CCOCC3)c21` [Example 105, 4-(7-Morpholin-4-yl-1-propyl-1H-indazole-3-yl)phenol] yielded a concentration for half-maximal inhibition (IC50) of 918 nM. The Emax under setting [1] was 66%. As for `CCCn1nc(-c2ccc(O)cc2)c2cccc(-c3ccccc3)c21` [Example 111, 4-(7-phenyl-1-propyl-1H-indazol-3-yl)phenol], half-maximal inhibition (IC50) was put at 214 nM. For the same molecule, under setting [1], the Emax is 78%.

Turning to `CC(C)(C)C(=O)Oc1ccc(-c2nn(C3CCCC3)c3c(F)cccc23)cc1` [Example 112, 4-(1-cyclopentyl-7-fluoro-1H-indazol-3-yl)phenyl pivalate], the IC50 was 667 nM. Besides, the Emax under setting [1] was 48%. In turn, `CC(=O)Oc1ccc(-c2nn(C3CCCC3)c3c(F)cccc23)cc1` [Example 114, 4-(1-cyclopentyl-7-fluoro-1H-indazol-3-yl)phenyl acetate] had a half-inhibitory concentration (IC50) of 268 nM. The Emax under setting [1] stood at 67%.
